Reference: ChEMBL document CHEMBL5724914, “Linking interpersonal differences in gut microbiota composition and drug biotransformation activity” (2024)
Where a SMILES comes first, the peptide text is derived from it. [ ]: non-standard residue; d: D form. pGlu = O=C1CC[C@@H](C(=O)O)N1; Thz = O=C(O)[C@@H]1CSCN1

Key:
[1] = (§1) The drug is tested on Z-027 corresponding to metagenome with ENA study accession number: PRJEB37062 and ENA sample accession number: ERS12561826 for biotransformation under anaerobic condition. The drug concentrations were measured over 9 timepoints collected between 0 and 24 hours of incubation by liquid-chromatography-coupled mass spectrometry (LC–MS); conditions: 2 µM
[2] = as §1, with “Z-023” for “Z-027”, “ERS12561822” for “ERS12561826”; conditions: 2 µM
[3] = as §1, with “Z-021” for “Z-027”, “ERS12561820” for “ERS12561826”; conditions: 2 µM
[4] = (§2) The drug is tested on Z-020 corresponding to rabbit gut metagenome with ENA study accession number: PRJEB37062 and ENA sample accession number: ERS12561819 for biotransformation under anaerobic condition. The drug concentrations were measured over 9 timepoints collected between 0 and 24 hours of incubation by liquid-chromatography-coupled mass spectrometry (LC–MS); conditions: 2 µM
[5] = as §2, with “Z-018” for “Z-020”, “pig” for “rabbit”, “ERS12561817” for “ERS12561819”; conditions: 2 µM
[6] = as §2, with “Z-016” for “Z-020”, “mouse” for “rabbit”, “ERS12561815” for “ERS12561819”; conditions: 2 µM
[7] = as §1, with “Z-008” for “Z-027”, “ERS12561808” for “ERS12561826”; conditions: 2 µM
[8] = as §2, with “Z-006” for “Z-020”, “mouse” for “rabbit”, “ERS12561806” for “ERS12561819”; conditions: 2 µM
[9] = as §2, with “WLS-350” for “Z-020”, “human” for “rabbit”, “ERS12561789” for “ERS12561819”; conditions: 2 µM
[10] = as §2, with “WLS-170” for “Z-020”, “human” for “rabbit”, “ERS12561762” for “ERS12561819”; conditions: 2 µM
[11] = as §2, with “WLS-038” for “Z-020”, “human” for “rabbit”, “ERS12561745” for “ERS12561819”; conditions: 2 µM
[12] = as §2, with “WLS-007” for “Z-020”, “human” for “rabbit”, “ERS12561742” for “ERS12561819”; conditions: 2 µM
[13] = human gut metagenome, 24 h, 2 µM
[14] = human gut metagenome, 24 h, 2 µM; remark: listed apart in the source
[15] = human gut metagenome, 24 h, 2 µM; remark: listed apart in the source
[16] = human gut metagenome, 24 h, 2 µM; remark: listed apart in the source
[17] = human gut metagenome, 24 h, 2 µM; remark: listed apart in the source
[18] = human gut metagenome, 24 h, 2 µM; remark: listed apart in the source
[19] = human gut metagenome, 24 h, 2 µM; remark: listed apart in the source
[20] = as §1, with “Z-010” for “Z-027”, “ERS12561810” for “ERS12561826”; conditions: 2 µM
Further: call rule not given here.

In the case of `COc1ccc(CCN(C)CCCC(C#N)(c2ccc(OC)c(OC)c2)C(C)C)cc1OC` (stereo unspecified), the “Bacterial Biotransformation” value [1] is reported as “Compound NOT metabolized”, the “Bacterial Biotransformation” value [2] is reported as “Compound metabolized” and the “Bacterial Biotransformation” value [3] is reported as “Compound NOT metabolized”. The “Bacterial Biotransformation” value [4] was “Compound metabolized”, the “Bacterial Biotransformation” value [5] was “Compound metabolized” and the “Bacterial Biotransformation” value [6] was “Compound NOT metabolized”. The “Bacterial Biotransformation” value [7] was “Compound NOT metabolized”, the “Bacterial Biotransformation” value [8] was “Compound NOT metabolized” and the “Bacterial Biotransformation” value [9] was “Compound metabolized”. For the same molecule, the “Bacterial Biotransformation” value [10] was “Compound metabolized”, the “Bacterial Biotransformation” value [11] was “Compound NOT metabolized” and the “Bacterial Biotransformation” value [12] was “Compound metabolized”. For the same molecule, the “Bacterial Biotransformation” value [13] was “Compound metabolized”, the “Bacterial Biotransformation” value [14] was “Compound metabolized” and the “Bacterial Biotransformation” value [15] was “Compound NOT metabolized”. The “Bacterial Biotransformation” value [16] was “Compound metabolized”, the “Bacterial Biotransformation” value [17] was “Compound NOT metabolized” and the “Bacterial Biotransformation” value [18] was “Compound NOT metabolized”. For the same molecule, the “Bacterial Biotransformation” value [19] was “Compound NOT metabolized”.
For `COc1c(C)c2c(c(O)c1C/C=C(\C)CCC(=O)OCCN1CCOCC1)C(=O)OC2` [MYCOPHENOLATE MOFETIL], the “Bacterial Biotransformation” value [1] was “Compound metabolized”, the “Bacterial Biotransformation” value [2] was “Compound metabolized” and the “Bacterial Biotransformation” value [3] was “Compound metabolized”. For the same molecule, the “Bacterial Biotransformation” value [5] was “Compound metabolized”, the “Bacterial Biotransformation” value [6] was “Compound metabolized” and the “Bacterial Biotransformation” value [20] was “Compound metabolized”. The “Bacterial Biotransformation” value [7] was “Compound metabolized”, the “Bacterial Biotransformation” value [8] was “Compound metabolized” and the “Bacterial Biotransformation” value [9] was “Compound metabolized”. For the same molecule, the “Bacterial Biotransformation” value [10] was “Compound metabolized”, the “Bacterial Biotransformation” value [11] was “Compound metabolized” and the “Bacterial Biotransformation” value [12] was “Compound metabolized”. The “Bacterial Biotransformation” value [13] was “Compound metabolized”, the “Bacterial Biotransformation” value [14] was “Compound metabolized” and the “Bacterial Biotransformation” value [15] was “Compound metabolized”. The “Bacterial Biotransformation” value [16] was “Compound metabolized”, the “Bacterial Biotransformation” value [17] was “Compound metabolized” and the “Bacterial Biotransformation” value [18] was “Compound metabolized”. For the same molecule, the “Bacterial Biotransformation” value [19] was “Compound metabolized”.
With `CCCC1O[C@@H]2C[C@H]3[C@@H]4CCC5=CC(=O)C=C[C@]5(C)[C@H]4[C@@H](O)C[C@]3(C)[C@]2(C(=O)CO)O1` (stereo partly specified) [BUDESONIDE] the “Bacterial Biotransformation” value [1] was “Compound NOT metabolized”, the “Bacterial Biotransformation” value [2] was “Compound NOT metabolized” and the “Bacterial Biotransformation” value [3] was “Compound metabolized”. The “Bacterial Biotransformation” value [4] was “Compound NOT metabolized”, the “Bacterial Biotransformation” value [5] was “Compound metabolized” and the “Bacterial Biotransformation” value [20] was “Compound metabolized”. The “Bacterial Biotransformation” value [7] was “Compound metabolized”, the “Bacterial Biotransformation” value [8] was “Compound NOT metabolized” and the “Bacterial Biotransformation” value [9] was “Compound metabolized”. The “Bacterial Biotransformation” value [10] was “Compound metabolized”, the “Bacterial Biotransformation” value [11] was “Compound metabolized” and the “Bacterial Biotransformation” value [12] was “Compound metabolized”. The “Bacterial Biotransformation” value [13] was “Compound metabolized”, the “Bacterial Biotransformation” value [14] was “Compound metabolized” and the “Bacterial Biotransformation” value [15] was “Compound metabolized”. The “Bacterial Biotransformation” value [16] was “Compound metabolized”, the “Bacterial Biotransformation” value [17] was “Compound NOT metabolized” and the “Bacterial Biotransformation” value [18] was “Compound metabolized”. The “Bacterial Biotransformation” value [19] was “Compound metabolized”.
In the case of `CCCCCCOC(=O)/N=C(/N)c1ccc(NCc2nc3cc(C(=O)N(CCC(=O)OCC)c4ccccn4)ccc3n2C)cc1.CS(=O)(=O)O` [DABIGATRAN ETEXILATE MESYLATE], the “Bacterial Biotransformation” value [1] is reported as “Compound NOT metabolized”, the “Bacterial Biotransformation” value [2] is reported as “Compound NOT metabolized” and the “Bacterial Biotransformation” value [3] is reported as “Compound NOT metabolized”. The “Bacterial Biotransformation” value [4] was “Compound NOT metabolized”, the “Bacterial Biotransformation” value [5] was “Compound NOT metabolized” and the “Bacterial Biotransformation” value [6] was “Compound NOT metabolized”. The “Bacterial Biotransformation” value [20] was “Compound NOT metabolized”, the “Bacterial Biotransformation” value [7] was “Compound NOT metabolized” and the “Bacterial Biotransformation” value [8] was “Compound NOT metabolized”. The “Bacterial Biotransformation” value [9] was “Compound NOT metabolized”, the “Bacterial Biotransformation” value [13] was “Compound NOT metabolized” and the “Bacterial Biotransformation” value [14] was “Compound NOT metabolized”.
With `O=C(NCc1ccccc1)OCCO` [BURAMATE] the “Bacterial Biotransformation” value [1] was “Compound NOT metabolized”, the “Bacterial Biotransformation” value [2] was “Compound NOT metabolized” and the “Bacterial Biotransformation” value [3] was “Compound NOT metabolized”. The “Bacterial Biotransformation” value [5] was “Compound NOT metabolized”, the “Bacterial Biotransformation” value [6] was “Compound NOT metabolized” and the “Bacterial Biotransformation” value [20] was “Compound NOT metabolized”. The “Bacterial Biotransformation” value [7] was “Compound NOT metabolized”, the “Bacterial Biotransformation” value [8] was “Compound NOT metabolized” and the “Bacterial Biotransformation” value [9] was “Compound NOT metabolized”. The “Bacterial Biotransformation” value [10] was “Compound NOT metabolized”, the “Bacterial Biotransformation” value [11] was “Compound NOT metabolized” and the “Bacterial Biotransformation” value [12] was “Compound NOT metabolized”. For the same molecule, the “Bacterial Biotransformation” value [13] was “Compound NOT metabolized”, the “Bacterial Biotransformation” value [14] was “Compound NOT metabolized” and the “Bacterial Biotransformation” value [15] was “Compound NOT metabolized”. For the same molecule, the “Bacterial Biotransformation” value [16] was “Compound NOT metabolized”, the “Bacterial Biotransformation” value [17] was “Compound NOT metabolized” and the “Bacterial Biotransformation” value [18] was “Compound NOT metabolized”. For the same molecule, the “Bacterial Biotransformation” value [19] was “Compound NOT metabolized”.
With `O=C1CC[C@@H](C(=O)N2CSC[C@H]2C(=O)O)N1` [PIDOTIMOD] ([pGlu]-[Thz]-OH) the “Bacterial Biotransformation” value [1] was “Compound NOT metabolized”, the “Bacterial Biotransformation” value [2] was “Compound metabolized” and the “Bacterial Biotransformation” value [4] was “Compound NOT metabolized”. The “Bacterial Biotransformation” value [5] was “Compound metabolized”, the “Bacterial Biotransformation” value [6] was “Compound NOT metabolized” and the “Bacterial Biotransformation” value [20] was “Compound metabolized”. For the same molecule, the “Bacterial Biotransformation” value [8] was “Compound NOT metabolized”, the “Bacterial Biotransformation” value [9] was “Compound NOT metabolized” and the “Bacterial Biotransformation” value [10] was “Compound NOT metabolized”. The “Bacterial Biotransformation” value [11] was “Compound metabolized”, the “Bacterial Biotransformation” value [13] was “Compound NOT metabolized” and the “Bacterial Biotransformation” value [14] was “Compound NOT metabolized”. The “Bacterial Biotransformation” value [17] was “Compound NOT metabolized”, the “Bacterial Biotransformation” value [18] was “Compound NOT metabolized” and the “Bacterial Biotransformation” value [19] was “Compound NOT metabolized”.
For `CCC(COC(=O)c1cc(OC)c(OC)c(OC)c1)(c1ccccc1)N(C)C.O=C(O)/C=C\C(=O)O` (stereo unspecified), the “Bacterial Biotransformation” value [1] was “Compound NOT metabolized”, the “Bacterial Biotransformation” value [2] was “Compound metabolized” and the “Bacterial Biotransformation” value [3] was “Compound metabolized”. The “Bacterial Biotransformation” value [4] was “Compound metabolized”, the “Bacterial Biotransformation” value [5] was “Compound metabolized” and the “Bacterial Biotransformation” value [6] was “Compound NOT metabolized”. The “Bacterial Biotransformation” value [7] was “Compound NOT metabolized”, the “Bacterial Biotransformation” value [8] was “Compound NOT metabolized” and the “Bacterial Biotransformation” value [9] was “Compound NOT metabolized”. For the same molecule, the “Bacterial Biotransformation” value [10] was “Compound metabolized”, the “Bacterial Biotransformation” value [11] was “Compound NOT metabolized” and the “Bacterial Biotransformation” value [12] was “Compound NOT metabolized”. For the same molecule, the “Bacterial Biotransformation” value [13] was “Compound metabolized”, the “Bacterial Biotransformation” value [14] was “Compound NOT metabolized” and the “Bacterial Biotransformation” value [15] was “Compound NOT metabolized”. For the same molecule, the “Bacterial Biotransformation” value [16] was “Compound metabolized”, the “Bacterial Biotransformation” value [17] was “Compound NOT metabolized” and the “Bacterial Biotransformation” value [18] was “Compound NOT metabolized”. For the same molecule, the “Bacterial Biotransformation” value [19] was “Compound NOT metabolized”.
In the case of `C#C[C@]1(O)CC[C@H]2[C@@H]3CCC4=CC(=O)CC[C@@H]4[C@H]3CC[C@@]21CC` [LEVONORGESTREL], the “Bacterial Biotransformation” value [1] is reported as “Compound metabolized”, the “Bacterial Biotransformation” value [4] is reported as “Compound metabolized” and the “Bacterial Biotransformation” value [5] is reported as “Compound metabolized”. For the same molecule, the “Bacterial Biotransformation” value [8] was “Compound metabolized”, the “Bacterial Biotransformation” value [9] was “Compound metabolized” and the “Bacterial Biotransformation” value [10] was “Compound metabolized”. The “Bacterial Biotransformation” value [12] was “Compound metabolized”, the “Bacterial Biotransformation” value [13] was “Compound metabolized” and the “Bacterial Biotransformation” value [14] was “Compound metabolized”. The “Bacterial Biotransformation” value [15] was “Compound metabolized”, the “Bacterial Biotransformation” value [16] was “Compound metabolized” and the “Bacterial Biotransformation” value [17] was “Compound metabolized”. The “Bacterial Biotransformation” value [19] was “Compound metabolized”.
For `c1ccc([C@H]2CN3CCSC3=N2)cc1` [LEVAMISOLE], the “Bacterial Biotransformation” value [1] was “Compound NOT metabolized”, the “Bacterial Biotransformation” value [4] was “Compound NOT metabolized” and the “Bacterial Biotransformation” value [5] was “Compound metabolized”. The “Bacterial Biotransformation” value [6] was “Compound NOT metabolized”, the “Bacterial Biotransformation” value [8] was “Compound metabolized” and the “Bacterial Biotransformation” value [9] was “Compound metabolized”. The “Bacterial Biotransformation” value [10] was “Compound metabolized”, the “Bacterial Biotransformation” value [11] was “Compound metabolized” and the “Bacterial Biotransformation” value [12] was “Compound metabolized”. The “Bacterial Biotransformation” value [13] was “Compound metabolized”, the “Bacterial Biotransformation” value [14] was “Compound metabolized” and the “Bacterial Biotransformation” value [15] was “Compound metabolized”. For the same molecule, the “Bacterial Biotransformation” value [16] was “Compound metabolized”, the “Bacterial Biotransformation” value [17] was “Compound metabolized” and the “Bacterial Biotransformation” value [18] was “Compound metabolized”. For the same molecule, the “Bacterial Biotransformation” value [19] was “Compound metabolized”.
